Results reported in patent publication US5316771A, “Method of amphiphatic drug loading in liposomes by ammonium ion gradient” (priority 1992, dated 1994).
Where two headings read alike, the source gives them in different places.

Legend:
[1] = cited from earlier work
[2] = Quenching of acridine orange fluorescence on incorporation into liposomes; assay type: physicochemical; conditions: liposomes with external ammonium sulfate removed
Experimental: In order to further substantiate the existence of the ammonium gradient, the same experiment as described above was repeated with the other compounds such as acridine orange, a cytotoxic drug acridine orange is an amphiphatic weak base (pK=9.25), which has the advantage of being fluorescent. Instead of trapping pyranine inside the ammonium sulfate liposomes, liposomes were added to a solution containing acridine orange. The quenching of the resulting solution was monitored following partitioning into the aqueous phase of the liposome, using the experimental designs described in Example 5 and illustrated in FIG. 2.
Inset graph is an example of one of the experiments. Percentage of fluorescence intensity (F.I.) of acridine orange was monitored continuously and is shown here as (a). At the specified time (b) liposomes were added and the quenching was followed. At steady state, 5 um of nigericin was added, shown here as (c) and the extent of the release of quenching was used to calculate the ammonium sulfate gradient dependent fluorescence intensity. The details of the experiment are described in Example 5.
1 umol of acridine orange was added to a solution containing different proportions of potassium chloride and ammonium sulfate. The solution was designed to get different outside-inside gradients of ammonium sulfate when the liposomes are added. […] The recovery of fluorescence was monitored. […]

[3] = Loading of daunorubicin into ammonium sulfate liposomes
Experimental: After separation of untrapped ammonium sulfate by Sephadex G- 50, 1 ml of the liposome dispersion was mixed with 10 mg of daunorubicin dissolved in 1 ml of 50° C. and at specified time intervals aliquots were taken.

[4] = sodium/potassium gradient with valinomycin; cited from earlier work
[5] = Loading of doxorubicin into ammonium sulfate liposomes (NH4+ gradient), Dowex removal of free drug; assay type: physicochemical; conditions: biphasic, FIG. 3
Experimental: Two preparations of liposomes were used, one composed of EPC and cholesterol in molar ratio of 2:1; and second of DPPC and cholesterol in molar ratio 2:1.
The loading was started after removal of external untrapped ammonium sulfate by Sephadex G-50 gel exclusion chromatography.
Dowex binds Desferal and therefore the latter was added to final concentration of 0.5 mM immediately after the removal of the free drug by Dowex.
In order to determine the concentration of a loaded drug inside liposomes, the internal aqueous osmotic volume of the vesicles was measured. This was done by the entrapment of the non-measurable radioactive tracer ^3 H inulin. The comparison of the radioactivity per mole phospholipids before and after removal of the untrapped inulin was used to determine trapped volume using a procedure described in individual examples.
In all cases the gradient was obtained by gel exclusion chromatography of the liposomes after ammonium sulfate loading.
The incubation was shorter for certain types of kinetic experiments. At the end of incubation period, the mixture was passed through a Dowex 50 WX-4 (Serva) column to adsorb the free, unincorporated drug. […] A column containing 1-2 g dry weight of the resin was sufficient to adsorb all unincorporated drug. […] EPC was used for a standard curve.
The mixture was incubated at room temperature for approximately 24 hours. […]

[6] = around 24 hours; cited from earlier work
[7] = Biochemistry, 21:3927-3932; cited from earlier work
[8] = Self-quenching of doxorubicin fluorescence; assay type: physicochemical
Experimental: The measurements were carried on a Perkin-Elmer MPF-44 spectrofluorometer, using excitation/emission wavelengths of 470 nm and 590 nm respectively. […] This was calculated from the difference between the fluorescence of the liposomes prepared according to Examples 1-4, and the fluorescence of the same mixture after diluting it 10 times with isopropanol containing 10% of 0.75% HCI. […] A correction for the difference in fluorescence of doxorubicin in water and the acidified isopropanol solution, deduced from measurements of the fluorescence of "free" drug in the two solutions, was introduced. The small amount of unquenched doxorubicin is probably due to some free-drug that leaked out of the vesicles.

[9] = From the text: For this, ammonium carbonate (0.12M) was placed in a beaker. The ultrasound probe was attached to the beaker.

CN(C)c1ccc2cc3ccc(N(C)C)cc3nc2c1 [Acridine orange]
pK [1]: 9.25
Quenching of acridine orange fluorescence [2]: 96.5%

COc1cccc2c1C(=O)c1c(O)c3c(c(O)c1C2=O)C[C@@](O)(C(C)=O)C[C@@H]3O[C@H]1C[C@H](N)[C@H](O)[C@H](C)O1 [Daunorubicin]
Rate of incorporation compared with doxorubicin [3]: higher than that of doxorubicin
Time to completion of incorporation [3]: less than one hour

CCCCOc1cc(C(=O)NCCN(CC)CC)c2ccccc2n1 [Dibucaine]
Loading [4]: up to 52%

COc1cccc2c1C(=O)c1c(O)c3c(c(O)c1C2=O)C[C@@](O)(C(=O)CO)C[C@@H]3O[C@H]1C[C@H](N)[C@H](O)[C@H](C)O1 [Doxorubicin]
Duration of slower phase of loading [5]: about 24 hours
Leakage from liposomes [6]: substantial leakage
Concentration above which dimers and aggregates form [7]: higher than 1 um
Concentration above which fluorescence is quenched ([8]; in saline): higher than 10^-6 M
Quenching ([8]; in solution, concentration 1.7.10^-4, corrected for inner filter effect): 33%
Quenching ([8]; in solution, concentration 3.4.10^-5, corrected for inner filter effect): 16%
Quenching ([8]; in solution, concentration 6.9.10^-5, corrected for inner filter effect): 25%
Quenching ([8]; inside the liposomes): ~100%

N.N.O=C(O)O [ammonium carbonate]
Ultrasound signal ([9]; HCl added to pH 4.0): large signal
Ultrasound signal ([9]; before acidification, 0.12M): No signal was observed
